In data set [1] the test system is ETA (rabbit femoral artery). The settings on record: ET-1 as agonist, endothelium-denuded rings. The source says: (§1) In Vitro Antagonism of ET-1 Stimulated Vasoconstriction in the Rabbit Femoral Artery (ETA) and Sarafotoxin 6c Stimulated Vasoconstriction in the Rabbit Pulmonary Artery (ETB)
(§2) Male New Zealand rabbits were killed by cervical dislocation and exsanguination. Femoral and pulmonary arteries were isolated, cleaned of connective tissue, and cut into 4-mm rings. The endothelium was denuded by placing the rings over hypodermic tubing (32 guage for femoral rings and 28 guage for pulmonary rings, Small Parts, Inc, Miami, Fla.) and gently rolling them. Denuded rings were mounted in 20 mL organ baths containing Krebs-bicarbonate buffer (composition in mM: NaCl, 118.2; NaHCO3, 24.8; KCl, 4.6; MgSO4 7.H2 O, 1.2; KH2 PO4, 1.2; CaCl2.2H2 O; Ca--Na2 EDTA, 0.026; dextrose, 10.0), that was maintained at 37° C. and gassed continuously with 5% CO2 in oxygen (pH 7.4). Resting tension was adjusted to 3.0 g for femoral and 4.0 g pulmonary arteries; the rings were left for 90 minutes to equilibrate.

The target in data set [2] is ETB (rabbit pulmonary artery) (Oryctolagus cuniculus, UniProt Q9N0W7).
Source text: as §1, §2

Data set [3] concerns CaCO-2 cells (human colon adenocarcinoma cell line). The format is in vitro ADME. The method, then: For experiments, the cells were counted, then diluted to 2.5×10^5 cells/mL for planting (400 μL per well) onto Snapwell culture membranes with 2.5 mL media in the lower chamber. Media in the […] was changed every 2 to 3 days. Cells used for this series of experiments were between passage 38 and 91. 2-[N-Morpholino]ethanesulfonic acid (MES)+25 mM glucose was used as incubation buffer for all the experiments and all incubation solutions were prepared to an osmotic pressure of 280 to 300 milliosmoles. The concentration of the endothelin antagonist being studied (for all experiments) was 100 μM and another endothelin antagonist with similar HPLC characteristics (retention time 2-3 minutes from the ET antagonist being studied, and similar chemical characteristics) was used at a concentration of 25 μM as an internal standard to compensate for any injection error. Prior to the start of the experiment, the transepithelial electrical resistance (TEER) was measured for each Snapwell (in media) at three points of the membrane. […] The membranes were washed by swirling in 0.9% normal saline and mounted in the pretreated diffusion chambers [0.1 mg/mL human serum albumin for 1 to 2 hours at 37° C. with O2 bubbling followed by air drying at 37° C. overnight, then with 4.5 to 5.0 mL dosing solution (MES+glucose+^14 C-PEG-4000 (5000 dpm/50 μL)+drug) for 5 minutes and 4.5 to 5.0 mL MES+glucose rinse just before the experiment.] The apical (donor) side was filled with 4.5 to 5.0 mL dosing solution, the basolateral (receiver) side with MES+glucose. Samples were removed from the donor and receiver compartments over the course of the experiment and analyzed for ^14 C-PEG 4000 (cell membrane integrity) and endothelin content.

Data set [4] deals with T1, human ETB receptor (cloned, CHO-K1 cells) (Homo sapiens, UniProt P24530).
T1 construct: The 1.35 kb HindIII/XbaI restriction fragment of clone 12 of the hETBR was inserted into the eukaryotic expression vector pRcCMV; expressed in transfected cells; host or cells: CHO-K1
Kind of data set: Human Endothelin Receptor Binding Assay-B (hERBA-B), binding to human cloned receptor. The following applies: membranes of transfected CHO-K1 cells. The protocol: Human Endothelin Receptor Biding Assay-B (hERBA-B) [^125 I]-ET-1 Binding to Human Cloned Receptor
A human placenta cDNA library was constructed in bacteriophage lambda gt11 and approximately 10^6 plaques were screened with a ^32 P-labelled 1.3 kilobase HindIII/XbaI restriction fragment of rat ETBR cDNA as a probe. Plaque hybridization was carried out for 16 hours at 42° C. in a solution containing 100 μg/mL calf thymus DNA, 1×Denhardt's solution, 5×sodium saline citrate (SSC), 50 mM sodium phosphate, and 0.1% sodium lauryl sulfate (SDS). The membranes were then washed twice for 30 minutes each in 2×SSC and 0.1% SDS at 42° C. A final wash was carried out in 0.5×SSC with 0.1% SDS at 55° C. The positive clones were purified and subcloned into a pUC19 plasmid. DNA sequencing was performed by the dideoxynucleotide chain termination method and human ETBR (h ETBR) was identified by reading both DNA strands.
The 1.35 kb HindIII/XbaI restriction fragment of clone 12 of the hETBR was inserted into the eukaryotic expression vector pRcCMV (pRcCMV-hETBR). CHO-K1 cells were transfected with 20 μg of pRcCMV-hETBR by electroporation at 300 V, 800 μF, low ohms for 1 second. […] Expression levels of human ETBR were determined by the receptor binding assay described below using [^125 I]-ET-3 as the radioligand. […]

Peptide text beside a SMILES is read from it.

ETB (rabbit pulmonary artery), sequence (Q9N0W7 27-441): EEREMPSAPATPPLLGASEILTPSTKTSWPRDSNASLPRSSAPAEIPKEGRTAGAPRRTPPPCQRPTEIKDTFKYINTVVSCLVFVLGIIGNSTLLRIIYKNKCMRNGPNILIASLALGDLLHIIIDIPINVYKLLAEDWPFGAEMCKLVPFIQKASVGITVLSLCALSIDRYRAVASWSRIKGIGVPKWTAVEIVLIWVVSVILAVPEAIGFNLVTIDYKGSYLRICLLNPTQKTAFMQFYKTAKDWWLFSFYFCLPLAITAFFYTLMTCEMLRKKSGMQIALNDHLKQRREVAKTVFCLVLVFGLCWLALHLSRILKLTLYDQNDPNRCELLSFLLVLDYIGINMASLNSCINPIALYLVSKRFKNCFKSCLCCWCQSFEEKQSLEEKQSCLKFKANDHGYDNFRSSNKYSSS
T1 sequence (P24530 27-442): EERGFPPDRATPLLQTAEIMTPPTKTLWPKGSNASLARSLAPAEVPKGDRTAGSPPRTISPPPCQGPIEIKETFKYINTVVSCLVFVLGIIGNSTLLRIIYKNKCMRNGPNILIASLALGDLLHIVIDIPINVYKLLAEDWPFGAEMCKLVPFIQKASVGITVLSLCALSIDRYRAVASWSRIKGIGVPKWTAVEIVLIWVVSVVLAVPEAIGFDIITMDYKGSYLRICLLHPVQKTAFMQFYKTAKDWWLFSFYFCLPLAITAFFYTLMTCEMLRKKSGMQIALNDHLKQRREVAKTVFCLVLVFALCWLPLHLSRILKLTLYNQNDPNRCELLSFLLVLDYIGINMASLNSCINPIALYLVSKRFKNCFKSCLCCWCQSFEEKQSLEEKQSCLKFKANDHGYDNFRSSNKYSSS

The term IC50 denotes the concentration at which inhibition is half-maximal. Higher therefore signals weaker potency. As for `CC[C@H](C)[C@H](NC(=O)[C@H](CC(=O)O)NC(=O)[C@H](CC(C)C)NC(=O)[C@H](NC(C)=O)C1c2ccccc2CCc2ccccc21)C(=O)N[C@H](C(=O)N[C@@H](Cc1c[nH]c2ccccc12)C(=O)O)[C@@H](C)CC` [Example 1, Ac-D-Bhg-Leu-Asp-Ile-Ile-Trp] (HELM PEPTIDE1{[ac].[O=C([C@H](N[*:1])C1c2ccccc2CCc2ccccc21)[*:2]].L.D.I.I.W}$$$$V2.0), in data set [1], the “pA2 Femoral” value turned out to be 6.8. The Kb in data set [2] is 79.4 nM. Besides, the “absorption in the gut suggested by CaCO-2 values” in data set [3] is 5-10%. Further, the IC50 in data set [4] was determined as 210 nM.
For `CC[C@H](C)[C@H](NC(=O)[C@H](CC(=O)O)NC(=O)[C@H](CC(C)C)NC(=O)[C@H](NC(C)=O)C1c2ccccc2CCc2ccccc21)C(=O)N(C)[C@H](C(=O)N[C@@H](Cc1c[nH]c2ccccc12)C(=O)O)[C@@H](C)CC` [Example 19, Ac-D-Bhg-Leu-Asp-Ile-N-MeIle-Trp] (HELM PEPTIDE1{[ac].[O=C([C@H](N[*:1])C1c2ccccc2CCc2ccccc21)[*:2]].L.D.I.[meI].W}$$$$V2.0) the same measures were 7.3, 251 nM, 5-10% and 25 nM.

The record behind these values is patent US5550110A, “Endothelin Antagonists II” (Warner-Lambert Company, priority 1994, dated 1996).
